Like-named read-outs stand apart in the source and are kept apart here. Marks after values point to notes of the source that are not given here.

For data set [1], the system named is human β-cells (dispersed human islet cells). As to the kind of experiment: Human β-cell proliferation assay (Ki67 and insulin staining). Type of data set: cell-based.
In data set [2] the test system is NFAT2-GFP nuclear translocation in R7T1 rodent beta cells. Description: NFAT2 translocation assay. The class given is cell-based. The following applies: 10 μM, 24 hours. The text has this: NFAT2T Translocation Assay. […] At least 1000 cells were counted.
The target in another data set is T1, FLT3(D835V) (Homo sapiens, UniProt P36888, D835V).
T1 construct: purchased DiscoverX
T1 sequence (P36888 27-993 D835V): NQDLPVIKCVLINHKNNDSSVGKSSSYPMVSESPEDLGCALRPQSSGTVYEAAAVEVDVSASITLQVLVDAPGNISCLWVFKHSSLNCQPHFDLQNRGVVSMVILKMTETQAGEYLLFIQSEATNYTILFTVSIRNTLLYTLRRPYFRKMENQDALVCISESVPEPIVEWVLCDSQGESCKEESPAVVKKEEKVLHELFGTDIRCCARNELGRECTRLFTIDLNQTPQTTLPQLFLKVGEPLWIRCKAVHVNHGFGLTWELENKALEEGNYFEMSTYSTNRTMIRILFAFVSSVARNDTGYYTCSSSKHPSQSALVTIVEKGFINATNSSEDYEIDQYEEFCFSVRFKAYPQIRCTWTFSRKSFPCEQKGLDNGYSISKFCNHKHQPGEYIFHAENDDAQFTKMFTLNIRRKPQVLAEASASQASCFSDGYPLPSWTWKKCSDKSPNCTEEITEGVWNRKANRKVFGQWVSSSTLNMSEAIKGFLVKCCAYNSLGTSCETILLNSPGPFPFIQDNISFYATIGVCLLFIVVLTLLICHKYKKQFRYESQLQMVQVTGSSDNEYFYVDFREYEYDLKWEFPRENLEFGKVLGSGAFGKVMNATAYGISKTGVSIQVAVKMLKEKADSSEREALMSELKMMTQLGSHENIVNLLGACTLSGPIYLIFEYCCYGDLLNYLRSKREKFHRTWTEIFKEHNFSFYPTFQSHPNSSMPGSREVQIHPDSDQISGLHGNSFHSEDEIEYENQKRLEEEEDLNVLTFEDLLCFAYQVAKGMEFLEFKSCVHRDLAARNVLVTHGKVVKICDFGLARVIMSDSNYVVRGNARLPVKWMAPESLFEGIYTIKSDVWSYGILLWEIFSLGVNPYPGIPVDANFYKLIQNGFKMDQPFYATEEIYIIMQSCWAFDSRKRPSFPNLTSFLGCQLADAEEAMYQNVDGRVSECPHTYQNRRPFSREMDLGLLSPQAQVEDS
Description: KINOMEscan Assay (DiscoverX). The class given is binding. The following applies: read-out: % DMSO Ctrl.

The next data set addresses T2, CDK11 (Homo sapiens, UniProt Q9BWU1).
T2 construct: purchased DiscoverX
Description: KINOMEscan Assay (DiscoverX). The following applies: read-out: % DMSO Ctrl. Type of data set: binding.

In a further data set the target is T3, CDK8 (Homo sapiens, UniProt P49336).
T3 construct: purchased DiscoverX
Description: KINOMEscan Assay (DiscoverX). Type of data set: binding. The following applies: read-out: % DMSO Ctrl.

The next data set addresses T4, CDKL5 (Homo sapiens, UniProt O76039).
T4 construct: purchased DiscoverX
Description: KINOMEscan Assay (DiscoverX). The class given is binding. The following applies: read-out: % DMSO Ctrl.

The target of another data set is T5, CIT (Homo sapiens, UniProt O14578).
T5 construct: purchased DiscoverX
As to the kind of experiment: KINOMEscan Assay (DiscoverX). The following applies: read-out: % DMSO Ctrl. The class given is binding.

The next data set concerns the target T6, CLK1 (Homo sapiens, UniProt P49759).
T6 construct: purchased DiscoverX
As to the kind of experiment: KINOMEscan Assay (DiscoverX). The following applies: read-out: % DMSO Ctrl. The class given is binding.

The next data set has as its target T7, CLK2 (Homo sapiens, UniProt P49760).
T7 construct: purchased DiscoverX
As to the kind of experiment: KINOMEscan Assay (DiscoverX). Type of data set: binding. The following applies: read-out: % DMSO Ctrl.

Another data set has as its target T8, CLK4 (Homo sapiens, UniProt Q9HAZ1).
T8 construct: purchased DiscoverX
As to the kind of experiment: KINOMEscan Assay (DiscoverX). The following applies: read-out: % DMSO Ctrl. The class given is binding.

For another data set, the target named is T9, CSNK1D (Homo sapiens, UniProt P48730).
T9 construct: purchased DiscoverX
T9 sequence (P48730 whole entry): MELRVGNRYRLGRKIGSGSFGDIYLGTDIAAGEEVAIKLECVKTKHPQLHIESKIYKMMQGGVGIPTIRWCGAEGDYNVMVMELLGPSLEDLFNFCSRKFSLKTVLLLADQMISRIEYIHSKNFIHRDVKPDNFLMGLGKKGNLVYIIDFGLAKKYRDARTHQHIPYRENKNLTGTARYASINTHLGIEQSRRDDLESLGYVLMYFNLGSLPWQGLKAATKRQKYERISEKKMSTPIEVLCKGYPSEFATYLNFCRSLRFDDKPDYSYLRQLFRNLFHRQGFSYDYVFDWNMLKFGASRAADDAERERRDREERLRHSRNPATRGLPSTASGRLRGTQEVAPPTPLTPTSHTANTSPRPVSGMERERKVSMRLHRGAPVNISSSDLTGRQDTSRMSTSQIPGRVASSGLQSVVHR
Description: KINOMEscan Assay (DiscoverX). The class given is binding. The following applies: read-out: % DMSO Ctrl.

The next data set has as its target T10, CSNK1E (Homo sapiens, UniProt P49674).
T10 construct: purchased DiscoverX
Description: KINOMEscan Assay (DiscoverX). Type of data set: binding. The following applies: read-out: % DMSO Ctrl.

A further data set deals with T11, CSNK2A2 (Homo sapiens, UniProt P19784).
T11 construct: purchased DiscoverX
T11 sequence (P19784 whole entry): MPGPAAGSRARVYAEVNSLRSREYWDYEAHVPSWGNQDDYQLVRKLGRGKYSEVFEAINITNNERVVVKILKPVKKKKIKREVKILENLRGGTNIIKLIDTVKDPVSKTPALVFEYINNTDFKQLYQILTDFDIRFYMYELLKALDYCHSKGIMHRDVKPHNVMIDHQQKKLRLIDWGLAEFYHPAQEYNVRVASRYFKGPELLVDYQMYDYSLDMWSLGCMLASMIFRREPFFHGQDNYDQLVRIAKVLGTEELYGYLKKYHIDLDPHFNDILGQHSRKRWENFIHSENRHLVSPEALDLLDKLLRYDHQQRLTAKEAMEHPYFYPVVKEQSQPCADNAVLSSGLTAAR
As to the kind of experiment: KINOMEscan Assay (DiscoverX). The class given is binding. The following applies: read-out: % DMSO Ctrl.

Another data set has as its target T12, DAPK1 (Homo sapiens, UniProt P53355).
T12 construct: purchased DiscoverX
Description: KINOMEscan Assay (DiscoverX). The class given is binding. The following applies: read-out: % DMSO Ctrl.

The target in the next data set is T13, DAPK2 (Homo sapiens, UniProt Q9UIK4).
T13 construct: purchased DiscoverX
T13 sequence (Q9UIK4 whole entry): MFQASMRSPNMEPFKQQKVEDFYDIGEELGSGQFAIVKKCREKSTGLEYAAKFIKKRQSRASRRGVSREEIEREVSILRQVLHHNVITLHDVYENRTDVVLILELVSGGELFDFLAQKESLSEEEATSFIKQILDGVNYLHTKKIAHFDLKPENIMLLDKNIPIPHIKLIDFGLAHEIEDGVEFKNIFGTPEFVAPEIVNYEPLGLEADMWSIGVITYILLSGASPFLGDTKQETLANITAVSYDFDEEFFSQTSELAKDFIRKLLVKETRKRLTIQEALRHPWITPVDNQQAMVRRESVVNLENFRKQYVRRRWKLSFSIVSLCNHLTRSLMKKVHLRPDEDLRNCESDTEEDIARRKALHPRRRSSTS
As to the kind of experiment: KINOMEscan Assay (DiscoverX). The following applies: read-out: % DMSO Ctrl. The class given is binding.

A further data set deals with T14, DAPK3 (Homo sapiens, UniProt O43293).
T14 construct: purchased DiscoverX
As to the kind of experiment: KINOMEscan Assay (DiscoverX). Type of data set: binding. The following applies: read-out: % DMSO Ctrl.

The target of a further data set is T15, DRAK2 (Homo sapiens, UniProt O94768).
T15 construct: purchased DiscoverX
T15 sequence (O94768 whole entry): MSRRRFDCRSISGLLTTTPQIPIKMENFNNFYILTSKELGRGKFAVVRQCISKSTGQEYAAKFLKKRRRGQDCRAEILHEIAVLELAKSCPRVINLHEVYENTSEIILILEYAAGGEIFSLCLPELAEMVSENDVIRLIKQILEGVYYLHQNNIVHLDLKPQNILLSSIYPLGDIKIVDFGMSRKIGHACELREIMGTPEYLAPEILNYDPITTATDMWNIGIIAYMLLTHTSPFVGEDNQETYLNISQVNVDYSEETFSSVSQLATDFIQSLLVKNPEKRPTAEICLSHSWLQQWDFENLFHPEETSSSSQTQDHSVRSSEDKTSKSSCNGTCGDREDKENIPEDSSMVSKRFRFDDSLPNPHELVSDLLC
Description: KINOMEscan Assay (DiscoverX). Type of data set: binding. The following applies: read-out: % DMSO Ctrl.

A further data set addresses T16, HIPK1 (Homo sapiens, UniProt Q86Z02).
T16 construct: purchased DiscoverX
As to the kind of experiment: KINOMEscan Assay (DiscoverX). Type of data set: binding. The following applies: read-out: % DMSO Ctrl.

Another data set addresses T17, TGFBR2 (Homo sapiens, UniProt P37173).
T17 construct: purchased DiscoverX
As to the kind of experiment: KINOMEscan Assay (DiscoverX). The following applies: read-out: % DMSO Ctrl. The class given is binding.

For the next data set, the target named is T18, VPS34 (Homo sapiens, UniProt Q8NEB9).
T18 construct: purchased DiscoverX
As to the kind of experiment: KINOMEscan Assay (DiscoverX). The following applies: read-out: % DMSO Ctrl. Type of data set: binding.

In data set [3] the target is T19, DYRK1A (Homo sapiens, UniProt Q13627). As to the kind of experiment: KINOMEscan Assay (DiscoverX). Further details: purchased Life Technologies. The class given is binding.
Data set [4] concerns the target T19, DYRK1A. As to the kind of experiment: FRET-based LanthaScreen Eu Kinase Binding Assay (Life Technologies).
The next data set deals with T20, Adrenergic α2B (Homo sapiens, UniProt P18089).
T20 construct: purchased Eurofins CEREP
As to the kind of experiment: Eurofins CEREP Screen. The class given is binding.

The next data set addresses T21, Adrenergic α2C (Homo sapiens, UniProt P18825).
T21 construct: purchased Eurofins CEREP
Description: Eurofins CEREP Screen. Type of data set: binding.

Data set [5] concerns the target T22, Serotonin (5-Hydroxytryptamine) 5-HT2A (Homo sapiens, UniProt P28223).
T22 construct: purchased Eurofins CEREP
Description: Eurofins CEREP Screen. The class given is binding.

Data set [6] has as its target T23, Serotonin (5-Hydroxytryptamine) 5-HT2C (Homo sapiens, UniProt P28335).
T23 construct: purchased Eurofins CEREP
As to the kind of experiment: Eurofins CEREP Screen. The class given is binding.

In data set [7] the target is T24, Serotonin (5-Hydroxytryptamine) 5-HT6 (Homo sapiens, UniProt P50406).
T24 construct: Eurofins CEREP (contract screen)
As to the kind of experiment: Eurofins CEREP Screen. The class given is binding.

The target of data set [8] is T25, Transporter, Norepinephrine (NET) (Homo sapiens, UniProt P23975).
T25 construct: Eurofins CEREP (contract screen)
Description: Eurofins CEREP Screen. Type of data set: binding.

T17 sequence (P37173 23-567): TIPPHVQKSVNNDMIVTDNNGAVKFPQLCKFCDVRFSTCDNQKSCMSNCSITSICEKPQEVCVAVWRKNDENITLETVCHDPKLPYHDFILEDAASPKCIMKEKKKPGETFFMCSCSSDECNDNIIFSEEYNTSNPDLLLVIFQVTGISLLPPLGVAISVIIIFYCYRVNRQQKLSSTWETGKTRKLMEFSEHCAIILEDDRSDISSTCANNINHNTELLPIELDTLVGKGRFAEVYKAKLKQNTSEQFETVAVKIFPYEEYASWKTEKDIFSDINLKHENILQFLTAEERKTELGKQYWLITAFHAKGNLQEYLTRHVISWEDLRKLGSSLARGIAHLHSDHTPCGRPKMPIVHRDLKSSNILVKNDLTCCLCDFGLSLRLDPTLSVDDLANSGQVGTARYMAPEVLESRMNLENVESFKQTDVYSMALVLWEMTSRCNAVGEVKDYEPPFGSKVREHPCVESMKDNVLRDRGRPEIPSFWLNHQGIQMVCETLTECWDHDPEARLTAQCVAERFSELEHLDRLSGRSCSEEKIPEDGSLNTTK
T10 sequence (P49674 whole entry): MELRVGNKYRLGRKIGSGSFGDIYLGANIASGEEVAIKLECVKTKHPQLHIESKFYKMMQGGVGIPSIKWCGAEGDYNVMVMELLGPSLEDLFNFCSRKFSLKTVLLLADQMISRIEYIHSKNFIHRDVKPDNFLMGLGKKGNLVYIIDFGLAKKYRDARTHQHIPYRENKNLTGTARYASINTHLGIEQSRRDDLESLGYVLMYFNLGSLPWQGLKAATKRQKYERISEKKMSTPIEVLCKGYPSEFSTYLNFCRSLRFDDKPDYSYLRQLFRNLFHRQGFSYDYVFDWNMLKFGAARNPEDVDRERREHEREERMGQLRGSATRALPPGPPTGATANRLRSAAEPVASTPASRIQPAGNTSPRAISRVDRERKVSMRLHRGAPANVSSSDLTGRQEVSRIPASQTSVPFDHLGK
T7 sequence (P49760 whole entry): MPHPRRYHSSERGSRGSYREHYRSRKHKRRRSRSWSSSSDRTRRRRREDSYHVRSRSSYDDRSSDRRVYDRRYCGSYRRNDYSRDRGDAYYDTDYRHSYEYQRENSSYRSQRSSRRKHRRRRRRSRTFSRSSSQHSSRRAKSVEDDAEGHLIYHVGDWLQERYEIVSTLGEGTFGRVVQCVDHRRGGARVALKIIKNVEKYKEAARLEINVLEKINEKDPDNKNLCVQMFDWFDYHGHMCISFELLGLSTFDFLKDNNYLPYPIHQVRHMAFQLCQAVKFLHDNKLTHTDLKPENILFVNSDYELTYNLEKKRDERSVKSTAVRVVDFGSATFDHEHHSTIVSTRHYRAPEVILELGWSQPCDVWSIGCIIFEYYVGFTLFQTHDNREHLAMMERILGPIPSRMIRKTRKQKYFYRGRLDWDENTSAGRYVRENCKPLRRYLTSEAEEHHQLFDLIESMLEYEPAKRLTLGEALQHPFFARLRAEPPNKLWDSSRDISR
T2 sequence (Q9BWU1 whole entry): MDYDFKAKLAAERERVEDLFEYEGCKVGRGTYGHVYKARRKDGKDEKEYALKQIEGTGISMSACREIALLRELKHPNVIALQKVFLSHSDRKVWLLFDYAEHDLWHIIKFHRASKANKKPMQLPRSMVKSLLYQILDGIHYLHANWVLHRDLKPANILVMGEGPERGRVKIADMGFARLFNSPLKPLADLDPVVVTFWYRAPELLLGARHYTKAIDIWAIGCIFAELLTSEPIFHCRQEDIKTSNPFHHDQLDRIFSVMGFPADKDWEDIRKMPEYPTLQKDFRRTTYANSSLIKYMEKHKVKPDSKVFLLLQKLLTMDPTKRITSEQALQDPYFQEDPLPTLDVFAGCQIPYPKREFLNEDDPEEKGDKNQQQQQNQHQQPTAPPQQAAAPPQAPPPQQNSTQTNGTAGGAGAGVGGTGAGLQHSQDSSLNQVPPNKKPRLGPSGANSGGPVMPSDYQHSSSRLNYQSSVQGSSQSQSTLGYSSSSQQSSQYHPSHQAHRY
T12 sequence (P53355 whole entry): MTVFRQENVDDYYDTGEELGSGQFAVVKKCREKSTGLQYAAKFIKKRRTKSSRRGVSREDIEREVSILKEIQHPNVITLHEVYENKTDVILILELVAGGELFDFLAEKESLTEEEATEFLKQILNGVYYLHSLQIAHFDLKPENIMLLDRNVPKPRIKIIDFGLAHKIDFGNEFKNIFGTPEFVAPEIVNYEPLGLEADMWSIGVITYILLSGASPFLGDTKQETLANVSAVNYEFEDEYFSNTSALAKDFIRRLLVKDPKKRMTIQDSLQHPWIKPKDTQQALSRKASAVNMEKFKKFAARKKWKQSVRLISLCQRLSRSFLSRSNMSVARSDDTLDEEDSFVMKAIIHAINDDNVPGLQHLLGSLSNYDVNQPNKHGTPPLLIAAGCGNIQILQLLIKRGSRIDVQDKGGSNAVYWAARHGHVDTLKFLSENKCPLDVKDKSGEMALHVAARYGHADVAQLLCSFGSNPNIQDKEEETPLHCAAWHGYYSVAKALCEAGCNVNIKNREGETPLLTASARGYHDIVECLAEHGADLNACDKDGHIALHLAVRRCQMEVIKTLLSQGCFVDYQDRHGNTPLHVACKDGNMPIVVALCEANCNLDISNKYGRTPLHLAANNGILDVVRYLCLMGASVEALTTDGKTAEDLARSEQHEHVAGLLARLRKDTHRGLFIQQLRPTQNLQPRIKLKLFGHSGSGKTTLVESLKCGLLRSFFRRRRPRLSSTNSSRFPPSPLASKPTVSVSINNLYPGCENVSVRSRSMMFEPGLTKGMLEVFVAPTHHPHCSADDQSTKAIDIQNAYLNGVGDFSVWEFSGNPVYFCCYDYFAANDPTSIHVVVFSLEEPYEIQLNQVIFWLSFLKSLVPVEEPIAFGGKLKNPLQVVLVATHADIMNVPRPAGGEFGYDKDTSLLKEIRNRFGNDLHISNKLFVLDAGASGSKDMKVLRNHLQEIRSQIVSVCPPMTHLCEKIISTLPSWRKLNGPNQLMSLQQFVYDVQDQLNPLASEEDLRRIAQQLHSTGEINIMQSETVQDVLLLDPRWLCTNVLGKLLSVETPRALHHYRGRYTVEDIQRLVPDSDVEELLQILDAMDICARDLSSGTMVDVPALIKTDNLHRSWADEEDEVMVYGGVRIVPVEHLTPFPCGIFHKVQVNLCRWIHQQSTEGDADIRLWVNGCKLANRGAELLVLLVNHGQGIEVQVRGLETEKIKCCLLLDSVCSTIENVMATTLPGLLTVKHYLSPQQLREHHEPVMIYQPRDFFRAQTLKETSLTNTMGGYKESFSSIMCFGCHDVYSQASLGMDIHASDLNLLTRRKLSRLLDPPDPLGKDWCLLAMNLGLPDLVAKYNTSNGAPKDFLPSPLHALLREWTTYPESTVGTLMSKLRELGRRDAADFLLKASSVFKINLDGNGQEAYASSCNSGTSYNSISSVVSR

Take `COc1ccc2c(c1)[nH]c1c(C)nc(CO)cc12` [Compound 2-8, (1-Methyl-7-methoxy-9H-pyrido[3,4-b]indol-3-yl)methanol]: the beta cell toxicity entry in data set [1] is listed as “did not cause toxicity”. The “NFAT2 translocation to nucleus” value in data set [2] is “drove NFAT2 translocation to nucleus”. In addition, the remaining binding at 10 µM at FLT3(D835V) (FLT3(D835V) mutant, 10 μM) stood at 42%.

In the case of `COc1ccc2c3ccnc(C)c3n(CCCc3noc(N)n3)c2c1` [Compound 20-13, 3-(3-(7-Methoxy-1-methyl-β-carbolin-9-yl)propyl)-5-amino-1,2,4-oxadiazole], in [1] (5 μM, versus harmine at 10 μM), the “human β-cell proliferation (in words)” value is given as “induced Human 3-Cell proliferation to a greater extent that harmine”. For the same compound, the remaining binding at 10 µM at CDK11 was found to be 81%; on CDK8 it was 100%; at CDKL5, 21%; on CIT it was 66%; on CLK1, 4.1%; at CLK2, 4.2%. Besides, the remaining binding at 10 µM stood at 1.7% on CLK4; 65% at CSNK1D; 61% at CSNK1E; 50% on CSNK2A2; 91% on DAPK1; 92% at DAPK2. In addition, the remaining binding at 10 µM at DAPK3 came to 91%; on DRAK2 it was 100%; at FLT3(D835V), 2.6%; on HIPK1 it was 9.5%; at TGFBR2, 100%; on VPS34, 42%. For the same compound, on DYRK1A [3] (DYRK1A, 10 μM), the “% DMSO Ctrl” value is 0 ^b % DMSO Ctrl.

For `C#CCn1c2cc(OC)ccc2c2ccnc(C)c21` [Compound 20-23a, 3-(7-Methoxy-1-methyl-β-carbolin-9-yl)-propan-1-yne], the remaining binding at 10 µM on CDK11 came out at 40%; on CDK8 it was 26%; on CDKL5 it was 22%; on CIT, 26%; at CLK1, 1.9%; at CLK2 it was 0.9%. Also, the remaining binding at 10 µM amounted to 1.1% at CLK4; 38% on CSNK1D; 26% on CSNK1E; 54% at CSNK2A2; 89% on DAPK1; 70% on DAPK2. Besides, the remaining binding at 10 µM on DAPK3 stood at 75%; on DRAK2 it was 100%; at FLT3(D835V) (FLT3(D835V) mutant, 10 μM), 2.5%; at HIPK1, 12%; on TGFBR2 it was 98%; at VPS34 (VPS34, 10 μM) it was 89%. In addition, the remaining binding at 10 µM on DYRK1A [3] (read-out: % DMSO Ctrl) stood at 0%. Besides, the IC50 at DYRK1A [4] was 8 nM.

For the compound `COc1ccc2c(c1)[nH]c1c(C)nccc12` [Harmine, reference compound], the remaining binding at 10 µM on FLT3(D835V) was 25%. The inhibition at 10 µM against Adrenergic α2B came out at 32%; at Adrenergic α2C it was 45%; in [5] it was 23%; in [6], 75%; in data set [7] it was 37%; in data set [8], 86%.

For the origin of these results see patent US12421232B2, “Kinase inhibitor compounds and compositions and methods of use” (ICAHN SCHOOL OF MEDICINE AT MOUNT SINAI, priority 2018, dated 2025).
